Test results from PubChem BioAssay (NCI).
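All cell lines were grown in 96-well plates and treated with compound for 48 hours. TGI is the concentration that stops growth completely.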

Columns and labels:
Experiment in all cases: growth of human tumour cells (NCI), 48 h
MALME-3M melanoma = system: MALME-3M melanoma
SF-268 CNS = system: SF-268 CNS
LOX IMVI melanoma = system: LOX IMVI melanoma
COLO 205 colon = system: COLO 205 colon
A549 NSCLC = system: A549 NSCLC
UACC-62 melanoma = system: UACC-62 melanoma
U251 CNS = system: U251 CNS
CAKI-1 renal = system: CAKI-1 renal
NCI-H226 lung = system: NCI-H226 lung
HOP-62 NSCLC = system: HOP-62 NSCLC
786-0 renal = system: 786-0 renal
RPMI-8226 leukemia = system: RPMI-8226 leukemia
SK-MEL-5 melanoma = system: SK-MEL-5 melanoma
SN12C renal = system: SN12C renal
OVCAR-5 ovarian = system: OVCAR-5 ovarian
SW-620 colon = system: SW-620 colon
MDA-MB-231 breast = system: MDA-MB-231 breast
A498 renal = system: A498 renal

Structure (SMILES) | TGI (MALME-3M melanoma) [µM] | TGI (SF-268 CNS) [µM] | TGI (LOX IMVI melanoma) [µM] | TGI (COLO 205 colon) [µM] | TGI (A549 NSCLC) [µM] | TGI (UACC-62 melanoma) [µM] | TGI (U251 CNS) [µM] | TGI (CAKI-1 renal) [µM] | TGI (NCI-H226 lung) [µM] | TGI (HOP-62 NSCLC) [µM] | TGI (786-0 renal) [µM] | TGI (RPMI-8226 leukemia) [µM] | TGI (SK-MEL-5 melanoma) [µM] | TGI (SN12C renal) [µM] | TGI (OVCAR-5 ovarian) [µM] | TGI (SW-620 colon) [µM] | TGI (MDA-MB-231 breast) [µM] | TGI (A498 renal) [µM]
COc1ccc(CN=C(N)N)c2ccccc12 | 34.7 | 38.8 | > 100 | 38 | > 100 | > 100 | 74.7 | > 100 | > 100 | > 100 | > 100 | > 100 | 38 | 52.4 | 73.4 | > 100 |  | 
FC1C2=C(SC1(F)F)C1CCC2C1 (configuration not stated) | > 100 |  | > 100 | > 100 | > 100 | > 100 |  | > 100 | > 100 |  | > 100 | > 100 | > 100 |  | > 100 | > 100 | > 100 | 
O=C1OC(=O)c2cc(S(=O)(=O)c3ccc4c(c3)C(=O)OC4=O)ccc21 | > 100 | > 100 | > 100 | > 100 | > 100 | > 100 | > 100 | > 100 | > 100 | > 100 | > 100 | > 100 | > 100 | > 100 | > 100 | > 100 | > 100 | 
CC(C)(C)C(=O)OC12/C(=N/O)CCCCCC1c1ccccc12 (configuration not stated) | 37.4 | 32.4 | 28.8 | 31.3 | 31.6 | 31.5 | 33.1 | 24.6 | 35.4 | 37 | 31 | 30.9 | 31.7 | 33.6 | 28.7 | 34.2 |  | 30.5
C/C=C/C1OC(O)(C(C)C(O)[C@H](C)C2OC(=O)/C(OC)=C/C(C)=C/[C@@H](C)[C@@H](O)[C@@H](C)C(O)C(C)C/C(C)=C/C=C/C2OC)C[C@@H](OC2CC(O)C(OC(N)=O)C(C)O2)C1C (some centres not stated) | 0.801 | 10.3 | < 0.01 | 1.27 | 13.3 | < 0.01 | 8.91 | 13.9 | 6.97 | < 0.01 | 1.42 |  | < 0.01 | 15 | 3.14 | 1.01 |  | 3.68
CN1C(=O)C(=O)c2cc3c(c4c2c1cc1ccccc14)OCO3 | > 100 | > 100 | 97.2 | 89.7 | > 100 | 38.5 | > 100 | > 100 | 73.3 | > 100 | > 100 | > 100 | > 100 | > 100 | > 100 | > 100 |  | > 100
Nc1ccc(C(=O)c2cn(CCN3CCOCC3)c3ccccc23)c2ccccc12 | > 100 | > 100 | 73.1 | 60.6 | > 100 | > 100 | > 100 | > 100 |  | > 100 | > 100 | > 100 | 51.5 |  | > 100 | > 100 |  | > 100
Cc1ccc(/C(O)=C/c2nc3ccccc3s/c2=N/CS(=O)(=O)c2ccc(C)cc2)cc1 | > 10 | > 10 | > 10 | > 10 | > 10 | > 10 | > 10 | > 10 |  | > 10 | > 10 | > 10 | > 10 | > 10 | > 10 | > 10 | > 10 | 
Cc1ccc(/C=N/Nc2ccc3ccccc3n2)s1 | 41.2 | > 100 | 36.5 | 31.1 | 40 | > 100 | 67.6 | > 100 | > 100 | 41.1 | 35.8 | 86.9 | 30.7 | 28.4 | > 100 | 92.1 | 65.9 | 
O=S(=O)(/N=C(\NO)Nc1ccc(Cl)cc1)c1cccc2nsnc12 | 46.3 | > 100 | 61.4 | > 100 | > 100 | 53.1 | > 100 | 70 | > 100 | > 100 | 80.7 |  | 29.5 | 63.1 | 75.5 | > 100 | > 100 | 
COC(=O)c1cnc(Cl)cn1 | > 100 | > 100 | > 100 | > 100 | > 100 | > 100 | > 100 | 37.5 | > 100 | > 100 | > 100 | 59 | > 100 | > 100 | > 100 | > 100 | > 100 | 
O=CC12C3CCC1C2C(=O)C3 (configuration not stated) | > 100 | > 100 | > 100 | > 100 | > 100 | > 100 | > 100 | > 100 | > 100 | > 100 | > 100 | > 100 | > 100 | > 100 | > 100 | > 100 | > 100 | 
O=c1c(=O)c2c(Br)sc(Br)c2c1=O | 31.8 | > 100 | 36.4 | 38.6 | > 100 | 39.3 | 61 | 33.4 | > 100 | > 100 | 56.5 | 45.9 | 31.8 | 31.6 | 39.8 | 31.8 |  | > 100
Cc1cc(S(=O)(=O)Nc2nc(N)nc(N(C)C)n2)c(SCC(=O)O)cc1Cl | > 10 | > 10 | > 10 | > 10 | > 10 |  | > 10 | > 10 | > 10 | > 10 | > 10 | > 10 | > 10 | > 10 | > 10 | > 10 |  | > 10
CN(c1ccccc1Cl)S(=O)(=O)c1ccc([N+](=O)[O-])cc1 | > 100 | > 100 | > 100 | > 100 | > 100 | > 100 | > 100 | > 100 | > 100 | > 100 | > 100 | > 100 | > 100 | > 100 | > 100 | > 100 | > 100 | 
N#C/C(=C1\SC(N=Nc2ccccc2)C(=O)N1c1ccccc1)c1nc2ccccc2[nH]1 (configuration not stated) | > 100 | > 100 | > 100 | > 100 | > 100 | > 100 | > 100 | > 100 | > 100 | 73.6 | > 100 |  | > 100 | > 100 | > 100 | > 100 |  | > 100
SCCSCCCSCCS |  | > 100 | > 100 | > 100 | > 100 | > 100 | > 100 |  |  | > 100 | > 100 |  | > 100 | > 100 | > 100 | > 100 | > 100 | 
COC(C)(C)C1(O)CCC(C)CC1=O (configuration not stated) | > 100 | > 100 |  | > 100 | > 100 | > 100 | > 100 | > 100 |  | > 100 | > 100 | > 100 | > 100 | > 100 | > 100 | > 100 |  | > 100
O=C(NCc1cccc2ccccc12)N/N=C\c1ccc(Cl)cc1 | > 100 | > 100 | > 100 | > 100 |  | > 100 | > 100 | > 100 | > 100 | > 100 | > 100 | > 100 | > 100 | > 100 | > 100 | > 100 |  | 
Cc1csc(/N=C\c2c(O)c3ccccc3oc2=O)n1 | 70.3 | > 100 | > 100 | > 100 | > 100 | > 100 | > 100 | 34.1 | > 100 |  | > 100 |  | > 100 |  | > 100 | > 100 | 34.7 | 
C=C1C(=O)O[C@@H]2C=C(C)C3=CC(=O)[C@](C)(C[C@H](OC(=O)/C(C)=C\C)[C@@H]12)O3 | 7.5 |  | 0.979 | 2 | 10.1 | 2.06 | 4.85 | 1.38 | 4.99 | 10.5 | 1.54 | 0.938 | 2.03 | 5.1 | 3.86 | 1.33 | 2.24 | 
CC[C@H]1C=CCC[C@@]2(C[C@@H]3CC[C@H]4[C@@H](C(=O)OCCCCCCCCCCCCCCCC(=O)N(CCCN)C[C@@H](O)CCN)[C@@]5(CCC[C@@H](C)O5)NC(=[N+]34)N2)O1 | 3.24 | 3.45 | 3.35 | 3.79 | 3.35 | 3.5 | 3.05 | > 10 | 3.32 | 3.06 | 3.3 | 2.53 | 2.87 | 9.33 | 3.22 | 6.99 |  | 6.62
c1csc(C[N+]23CN4CN(CN(C4)C2)C3)c1 | 33.2 | > 100 |  | 40.8 | 87 | 47.5 | 45.7 | 59.5 | > 100 | 46.6 | 58.8 | 58.7 | 35.8 |  | 67.3 | 90.7 |  | 
CC(C)C1=CC23CCC4C(C)(C(=O)O)CCCC4(C)C2CC1C1C(=O)N(c2ccccc2)C(=O)C13 (configuration not stated) | > 100 | > 100 | > 100 | 52.3 | > 100 | > 100 | > 100 | > 100 | 60.3 | > 100 | > 100 | > 100 | > 100 | > 100 | > 100 | > 100 |  | 
CC(C)C(N)=O | > 5000 | > 5000 | > 5000 | > 5000 | > 5000 | > 5000 | > 5000 | > 5000 | > 5000 | > 5000 | > 5000 | > 5000 | > 5000 | > 5000 | > 5000 | > 5000 |  | 
CCOC(=O)C(NC(=O)c1ccccc1)(N1CCOCC1)C(F)(F)F (configuration not stated) | > 100 | > 100 | > 100 | > 100 | > 100 | > 100 | > 100 | > 100 | > 100 | > 100 | > 100 | > 100 | > 100 | > 100 | > 100 | > 100 | > 100 | 
Cc1cc(=O)oc2c(C)c(OCCCOc3ccc4c(C)cc(=O)oc4c3C)ccc12 | > 100 | > 100 | > 100 |  | > 100 | > 100 | > 100 | > 100 |  | > 100 | > 100 | > 100 | > 100 |  | > 100 | > 100 |  | > 100
O=C1CCCCCCCCCCC1CN1CCCCC1 (configuration not stated) | > 100 | > 100 | > 100 | > 100 | > 100 | > 100 | > 100 |  | 82.4 | > 100 | > 100 | > 100 | 28.3 | > 100 | > 100 | > 100 |  | > 100
Cc1c(C(=O)/C=C/c2ccc(N(C)C)cc2)c(=O)n(-c2ccccc2)n1C | > 100 | > 100 | > 100 | > 100 | > 100 | > 100 | > 100 | > 100 | > 100 |  | > 100 |  |  | > 100 | > 100 | > 100 |  | > 100
